In patent publication US7998999B2, “Cyclohexyl substituted pyrrolidinones as inhibitors of 11-beta-hydroxysteroid dehydrogenase 1” (Eli Lilly and Company, priority 2006, dated 2011) one finds IC50 data, which are given here for five compounds.

The target of test [1] is T1, 11β-HSD1 in primary human aortic smooth muscle cells (AoSMC) (Homo sapiens, UniProt P28845).
T1 construct: containing 12 ng/mL hTNFα to induce expression of 11β-HSD1; endogenous in cells; host or cells: primary human aortic smooth muscle cells (AoSMC), induced with hTNFα
T1 sequence (P28845 whole entry): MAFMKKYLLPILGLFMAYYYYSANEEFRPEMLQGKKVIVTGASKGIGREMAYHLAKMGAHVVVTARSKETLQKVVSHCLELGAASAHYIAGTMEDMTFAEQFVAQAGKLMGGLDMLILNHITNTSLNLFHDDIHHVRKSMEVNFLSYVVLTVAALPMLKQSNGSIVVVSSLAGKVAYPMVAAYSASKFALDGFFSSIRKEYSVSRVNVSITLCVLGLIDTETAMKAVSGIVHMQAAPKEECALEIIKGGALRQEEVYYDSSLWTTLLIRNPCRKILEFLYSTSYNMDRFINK
Briefly: Human Aortic Smooth Muscle Cell Assay (cortisone to cortisol conversion). Format: cell-based. To be noted: AoSMC induced with hTNFα, 10 μM cortisone, cortisol by time resolved immunoassay. Here is the method: Human Aortic Smooth Muscle Cell Assay
Primary human aortic smooth muscle cells (AoSMC) are cultured in 5% FBS growth medium to a passage number of 6, then pelleted by centrifugation and resuspended at a density of 9×10^4 cells/mL in 0.5% FBS assay medium containing 12 ng/mL hTNFα to induce expression of 11β-HSD1. Cells are seeded into 96-well tissue culture assay plates at 100 μL/well (9×10^3 cells/well) and incubated for 48 hours at 37° C., 5% CO2. Following induction, cells are incubated for 4 hours at 37° C., 5% CO2 in assay medium containing test compounds then treated with 10 μL/well of 10 μM cortisone solubilized in assay medium, and incubated for 16 hours at 37° C., 5% CO2. Medium from each well is transferred to a plate for subsequent analysis of cortisol using a competitive fluorescence resonance time resolved immunoassay. In solution, an allophycocyanin (APC)-cortisol conjugate and free cortisol analyte compete for binding to a mouse anti-cortisol antibody/Europium (Eu)-anti mouse IgG complex. Higher levels of free cortisol result in diminishing energy transfer from the Europium-IgG to the APC-cortisol complex resulting in less APC fluorescence. Fluorescent intensities for Europium and APC are measured using a LJL Analyst AD. Europium and APC excitation is measured using 360 nm excitation and 615 nm and 650 nm emission filters respectively. Time resolved parameters for Europium were 1000 μs integration time with a 200 μs delay. APC parameters are set at 150 μs integration time with a 50 μs delay. Fluorescent intensities measured for APC are modified by dividing by the Eu fluorescence (APC/Eu). This ratio is then used to determine the unknown cortisol concentration by interpolation using a cortisol standard curve fitted with a 4-parameter logistic equation. These concentrations are then used to determine compound activity by plotting concentration versus % inhibition, fitting with a 4-parameter curve and reporting the IC50.

The target of test [2] is recombinant human 11β-HSD type 1 enzyme (Homo sapiens, UniProt P28845). Briefly: 11β-HSD Type 1 Enzyme Assay (NADPH fluorescence). Type of test: biochemical. To be noted: three hour incubation at room temperature, read-out: Human 11-βHSD1 IC50. As to the method: 11β-HSD Type 1 Enzyme Assay
Chain of recombinant human 11β-HSD type 1 enzyme (P28845 whole entry): as above
Human 11β-HSD type 1 activity is measured by assaying NADPH production by fluorescence assay. Solid compounds are dissolved in DMSO to a concentration of 10 mM. Twenty microliters of each are then transferred to a column of a 96-well polypropylene Nunc plate where they are further diluted 50-fold followed by subsequent two-fold titration, ten times across the plate with additional DMSO using a Tecan Genesis 200 automated system. Plates are then transferred to a Tecan Freedom 200 system with an attached Tecan Temo 96-well head and an Ultra 384 plate reader. Reagents are supplied in 96-well polypropylene Nunc plates and are dispensed individually into black 96-well Molecular Devices High Efficiency assay plates (40 μL/well capacity) in the following fashion: 9 μL/well of substrate (2.22 mM NADP, 55.5 μM Cortisol, 10 mM Tris, 0.25% Prionex, 0.1% Triton ×100), 3 μL/well of water to compound wells or 3 μL to control and standard wells, 6 μL/well recombinant human 11β-HSD type 1 enzyme, 2 μL/well of compound dilutions. For ultimate calculation of percent inhibition, a series of wells are added that represent assay minimum and maximum: one set containing substrate with 667 μM carbenoxolone (background), and another set containing substrate and enzyme without compound (maximum signal). Final DMSO concentration is 0.5% for all compounds, controls and standards. Plates are then placed on a shaker by the robotic arm of the Tecan for 15 seconds before being covered and stacked for a three hour incubation period at room temperature. Upon completion of this incubation, the Tecan robotic arm removes each plate individually from the stacker and places them in position for addition of 5 μL/well of a 250 μM carbenoxolone solution to stop the enzymatic reaction. Plates are then shaken once more for 15 seconds then placed into an Ultra 384 microplate reader (355EX/460EM) for detection of NADPH fluorescence.

For the compound “3-(4-Bromo-2-chloro-benzyl)-trans-1-(4-fluoro-cyclohexyl)-pyrrolidin-2-one [Example 10]”, the results for the IC50 in test [1] and in test [2] were 33 nM and 250 nM, respectively.

For `O=C1[C@H](Cc2c(Cl)cc(-c3ccc(F)cc3)cc2Cl)CCN1C1CCC(F)(F)CC1` [Example 3, (R)-3-(3,5-Dichloro-4′-fluoro-biphenyl-4-ylmethyl)-1-(4,4-difluoro-cyclohexyl)-pyrrolidin-2-one], the 50% inhibitory concentration (IC50) in test [1] turned out to be 9.6 nM; in test [2], 364 nM.

Turning to `Cn1cc(-c2cc(Cl)c(C[C@@H]3CCN(C4CCC(F)(F)CC4)C3=O)c(Cl)c2)cn1` [Example 6, (R)-3-[2,6-Dichloro-4-(1-methyl-1H-pyrazol-4-yl)-benzyl]-1-(4,4-difluoro-cyclohexyl)-pyrrolidin-2-one], the figures for the IC50 in test [1] and in test [2] were 9.1 nM and 302 nM, respectively.

On to `O=C1C(Cc2ccc(Br)cc2Cl)CCN1[C@H]1CC[C@@H](F)CC1` (stereo partly drawn) [Example 11, 3-(4-Bromo-2-chloro-benzyl)-cis-1-(4-fluoro-cyclohexyl)-pyrrolidin-2-one], for which the results for the half-maximal inhibitory concentration (IC50) in test [1] and in test [2] were 7.5 nM and 446 nM, respectively.

As to `O=C1C(Cc2c(Cl)cc(-c3cccnc3)cc2Cl)CCN1[C@H]1CC[C@@H](F)CC1` (stereo partly drawn) [Example 12, 3-(2,6-Dichloro-4-pyridin-3-yl-benzyl)-cis-1-(4-fluoro-cyclohexyl)-pyrrolidin-2-one], the half-inhibitory concentration (IC50) in test [1] amounted to 3.9 nM; in test [2], 260 nM.

As a reminder, the IC50 is the midpoint of a concentration-inhibition curve.
